Measured values reported in US11351130B2, “Prevention and reversal of inflammation induced DNA damage” (Indiana University Research and Technology Corporation, priority 2017, dated 2022).

Key:
Pharmacokinetics (PK) = conditions: in vivo
Description: (§1) PK studies were performed in the IU Simon Cancer Center Clinical Pharmacology Analytical Core (CPAC), as previously described for E3330 (Fishel et al., 2011) and standards for the compounds used. P450 metabolism studies using human microsomes were also performed in CPAC directed by Dr. David Jones.

[1] = P450 metabolism analysis using human microsomes; assay type: in vitro ADME; conditions: human
Description: as §1

[2] = test system: sensory neuronal cultures; experiment: Neuronal cell viability (trypan blue exclusion); assay type: cell-based
Description: (§2) Primary cultures of sensory neurons were harvested and maintained as previously described (Vasko et al., 2005). Briefly, adult male Sprague-Dawley rats (150-175 g; Harlan, Indianapolis, Ind.) were euthanized by CO2 asphyxiation and dorsal root ganglia (DRG) dissected from all spinal levels, transferred to into a collagenase solution (1 mg/ml), incubated for 1 hour at 37° C., then dissociated by mechanical agitation. Approximately 30,000 cells or 60,000 cells were plated into each well of 12-well or 6-well culture plates, respectively. All culture dishes were precoated with poly-D-lysine and laminin. Cells were maintained in F-12 media supplemented with 10% horse serum, 2 mM glutamine, 100 μg/ml Normocin™, 50 μg/ml penicillin, 50 μg/ml streptomycin, 50 μM 5-fluoro-2′-deoxyuridine (Invitrogen), 150 μM uridine, and 30 ng/ml of NGF in 3% CO2 at 37° C. Growth medium was changed every other day. Experiments were performed after cells were maintained in culture for 12-14 days.
Sensory neuronal culture trypan blue exclusion analysis was performed as previously described (Vasko et al., 2011). Cells were detached by adding a 0.05% trypsin-EDTA solution and media to each well. An equal volume of 0.4% (w/v) trypan blue in PBS was added to the cell suspension and the numbers of living cells (i.e., those that exclude the dye) were counted under a phase contrast microscope using a hemacytometer. Percent survival was calculated as the percent of live cells divided by the total cell number (including dead and live cells).

[3] = test system: sensory neurons in culture; assay type: cell-based, rat
Description: as §2
For release experiments, cell cultures were washed with HEPES buffer consisting of (in mM) 25 HEPES, 135 NaCl, 3.5 KCl, 2.5 CaCl2, 1 MgCl2, 3.3 D-glucose, and 0.1% bovine serum albumin, pH 7.4 and maintained at 37° C. They then were incubated for successive 10-minute intervals with 0.4 ml of HEPES buffer alone (basal release), with buffer containing 30 nM capsaicin, then with buffer alone (to assess return to basal release). After each incubation, the buffer was removed and the amount of immunoreactive calcitonin-gene related peptide (CGRP) in each sample was measured using radioimmunoassay (RIA) as previously described (Chen et al., 1996). At the end of the release protocol, CGRP is extracted from the cultures and total content measured using RIA.

Ref-1/APE1 = biological target: T1, Ref-1/APE1 (Rattus norvegicus, UniProt P43138); experiment: Ref-1/APE1 endonuclease activity in isolated sensory neurons; assay type: cell-based
T1 construct: When isolated sensory neurons were exposed to APX3330; endogenous in cells; host or cells: isolated sensory neurons

DRG = experiment: Cisplatin ± APX3330 in neuroblastoma tumor-bearing mice; assay type: in vivo
Text: Neuroblastoma cells were implanted subcutaneously into the right flanks of 6-wk old male NSG mice and allowed to proliferate until tumor volumes ≥150 mm^3. Mice were then randomized for treatment with cisplatin±APX3330 treatment.

T1 sequence (P43138 whole entry): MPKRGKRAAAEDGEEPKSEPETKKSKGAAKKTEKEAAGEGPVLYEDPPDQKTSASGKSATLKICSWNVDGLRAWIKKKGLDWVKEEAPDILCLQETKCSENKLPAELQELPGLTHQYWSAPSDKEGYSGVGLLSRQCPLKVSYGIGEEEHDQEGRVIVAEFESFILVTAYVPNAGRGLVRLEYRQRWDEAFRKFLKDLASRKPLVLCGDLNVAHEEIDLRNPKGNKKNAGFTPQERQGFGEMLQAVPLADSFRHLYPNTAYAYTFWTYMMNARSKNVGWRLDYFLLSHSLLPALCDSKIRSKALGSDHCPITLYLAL

CCCCCCCCC/C(=C\C1=C(C)C(=O)C(OC)=C(OC)C1=O)C(=O)O [APX3330]
half-life (Pharmacokinetics (PK)): 3.6 h | half-life [1]: 0.333 h | effect on cisplatin-induced cell death ([2]; 20 μM for 48 hours prior to and throughout the cisplatin treatment (24 hours)): blocked | cell death / cell viability, drug alone ([2]; 24 hours, E3330 10, 20 or 40 μM, APX2009 various concentrations): no significant cell death | effect on cisplatin-induced reduction in capsaicin-evoked CGRP release ([3]; 20 μM for 48 hours prior to and throughout exposure to 10 μM cisplatin): abolished the reduction in release | basal (resting) release or release of CGRP stimulated by 30 nM capsaicin, drug alone ([3]; 72 hours, E3330 20 μM, APX2009 10 or 20 μM, compared to untreated cells): no significant change | Ref-1/APE1 endonuclease activity (Ref-1/APE1): concentration-dependent increase in Ref-1/APE1 endonuclease activity | cisplatin or oxaliplatin's tumor-killing efficacy (DRG; in vivo (data not shown)): did not affect cisplatin or oxaliplatin's tumor-killing efficacy in vivo | oxidative DNA damage in DRG neurons (DRG; in vivo (data not shown)): protects DRG neurons from oxidative DNA damage | neurotoxicity induced by systemic administration of cisplatin (DRG; tumor-bearing mice): attenuated neurotoxicity
